Data from patent EP0298474B1, “Novel calcitonin derivative and salt thereof” (MITSUBISHI PETROCHEMICAL CO., LTD., priority 1987, dated 1992).
Positions of bridges follow the written chain, without caps; N, C: chain ends. Residues, ends and D or L forms follow the SMILES beside them.

Assays:
[1] = biological activity assay according to the method of Japanese Provisional Patent Publication No. 123500/1985; type: in vivo
Protocol: The crude (Oct¹, Cys(CA)⁷)-CCT obtained was dissolved in a 1 M acetic acid (5 mg/ml) and purified by the reverse phase high performance liquid chromatography. Chemcopack ODS-H (trade name, ø: 10 mm x 250 mm) column produced by Chemco Co. was used, with the eluents employed being water (100) - 10 % TFA (1) for the eluent A and water (40) -acetonitrile (60) - 10 % TFA (1) for the eluent B, and the elution was effected under the linear concentration gradient from the eluent A to the eluent B. Here, the numerals within bracckets represent volume ratios. The fraction corresponding to (Oct¹, Cys(CA)⁷)-CCT was collected and lyophilized to obtain 2.8 mg of white powder. The biological activity of the white powder obtained was assayed according to the method as described in Japanese Provisional Patent Publication No. 123500/1985. […]

[2] = stability test in solution (heat treatment, remaining peak area by reverse phase HPLC); type: physicochemical; details: 0.1 M sodium citrate buffer (pH 6.0), 10 µg/ml, sealed tube at 80 °C for 24 hours; stated in words relative to Example 1
Protocol: The (Oct¹, Cys(CA)⁷)-CCT was dissolved in 0.1 M sodium citrate buffer (pH 6.0) to a concentration of 10 µg/ml. One ml of this solution was left to stand in a sealed tube at 80 °C for 24 hours. By analysis according to the reverse phase HPLC by use of the measurement conditions (1), the eluted peak area A of the remaining (Oct¹, Cys(CA)⁷)-CCT was determined. Similarly, the eluted peak area B of the (Oct¹, Cys(CA)⁷)-CCT in the sample solution not subjected to the heat treatment was determined, and the ratio of A to B (%) was defined as the index.

[3] = method of Japanese Provisional Patent Publication No. 123500/1985
[4] = stated in words relative to (Oct¹, Cys(CA)⁷)-CCT of Example 1

Compound | biological activity [1, 3] [MRC U/mg] | biological activity [1, 4] | stability (ratio of A to B (%), remaining peak area) [2]
CC(C)C[C@H](NC(=O)[C@H](CCCCN)NC(=O)CNC(=O)[C@H](CC(C)C)NC(=O)[C@@H](NC(=O)[C@@H]1CSSC[C@H](N)C(=O)N[C@@H](C)C(=O)N[C@@H](CO)C(=O)N[C@@H](CC(C)C)C(=O)N[C@@H](CO)C(=O)N[C@@H]([C@@H](C)O)C(=O)N1)C(C)C)C(=O)N[C@@H](CO)C(=O)N[C@@H](CCC(N)=O)C(=O)N[C@@H](CCC(=O)O)C(=O)N[C@@H](CC(C)C)C(=O)N[C@@H](Cc1c[nH]cn1)C(=O)N[C@@H](CCCCN)C(=O)N[C@@H](CC(C)C)C(=O)N[C@@H](CCC(N)=O)C(=O)N[C@H](C(=O)N[C@@H](Cc1ccc(O)cc1)C(=O)N1CCC[C@H]1C(=O)N[C@@H](CCCNC(=N)N)C(=O)N[C@H](C(=O)N[C@@H](CC(=O)O)C(=O)N[C@H](C(=O)NCC(=O)N[C@@H](C)C(=O)NCC(=O)N[C@H](C(=O)N1CCC[C@H]1C(N)=O)[C@@H](C)O)C(C)C)[C@@H](C)O)[C@@H](C)O [natural type CCT, reference compound] (H-CASLSTCVLGKLSQELHKLQTYPRTDVGAGTP-NH2; disulfide 1-7) | 4500 | – | –
(Oct¹, Ala³, Cys(CA)⁷)-CCT | 6100 | – | –
(Oct¹, Cys(Acm)⁷)-CCT | 5500 | – | –
(Oct¹, Cys(Acm)⁷)-ECT | 5400 | – | –
(Oct¹, Cys(CA)⁷)-CCT | 5400 | equal to that obtained in Example 1 | –
(Oct¹, Cys⁷)-CCT | – | substantially equal to those of (Oct¹, Cys(CA)⁷)-CCT of Example 1 | substantially equal to those of (Oct¹, Cys(CA)⁷)-CCT of Example 1
(Oct¹, Thr³, Cys(CA)⁷)-CCT | 7800 | – | –
(pGlu¹, Cys(CA)⁷)-CCT | – | substantially equal to those of (Oct¹, Cys(CA)⁷)-CCT of Example 1 | substantially equal to those of (Oct¹, Cys(CA)⁷)-CCT of Example 1
